Test results: patent US7541368B2, “Pyrazoles as inhibitors of tumor necrosis factor” (Aventis Pharmaceuticals Inc., priority 2003, dated 2009)

Columns and labels:
[1] = molecular target: T1, Inactive N-terminal His6 tagged murine P38 (Mus musculus, UniProt P47811); assay: p38 cascade assay (HTRF; inactive p38 activated by MKK-6, ATF-2 phosphorylation); format: biochemical; conditions: inactive p38 preincubated with compound, then MKK-6, ATF-2, ATP; read-out: 50% inhibition in the p38 cascade assay at concentrations within the range
T1 construct: His6 (N); made in house
Method: The homogeneous time resolved fluorescence method (HTRF) assay measured the phosphorylation of human activating transcription factor (ATF)-2 protein by P38 following activation by MKK-6 and was run in A384 well plate format. […] MBP-tagged mouse MKK-6 (final concentration 50 nM), GST-tagged ATF-2 (fmal concentration 200 nM) and ATP (final concentration 50 μM) were then added and the incubation continued for 90 min. p38, MKK-6 and ATF-2 were prepared in the Protein Production Group, Aventis Pharmaceuticals. XL665 labeled anti-GST antibody (Cis Bio International) and cryptate labeled anti-pbospho-ATF2 antibody (Cis Bio International) were then added to generate the specific signal proportional to the phosphorylation of the substrate. The close proximity of XL665 labeled anti-GST antibody/phosphorylated GST-ATF2 complex and the cryptate labeled anti-phospho-ATF2 antibody results in a fluorescence transfer from cryptate to XL665. The resulting fluorescence signal was than read on a LJL Acquest set at multi-method mode using a fluorescence filter set (E=360 nm, Em=615/665 nm) with UV dichroic mirror (Integration time: 300000 μs). The results are reported as IC50 values. Compounds were tested over the concentration range of 3×10^−10M to 3×10^−5M.

[2] = tested on: TNF-alpha release in THP-1 cells; assay: LPS-induced TNF-alpha release in THP-1 cells; format: cell-based; conditions: Homo sapiens, THP-1, LPS-stimulated THP-1 cells; read-out: 50% inhibition in the LPS-induced TNF-alpha release in THP-1 cells assay at concentrations within the range
Method in brief: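 TNF-alpha in supernatants was quantified by sandwich ELISA against a log/log recombinant standard curve (0.125-16 ng/ml). Before this, THP-1 cells (1×10^6 cells/ml, serum-reduced) received compound at 1×10^−9 to 1×10^−6 M in 0.3% DMSO for 1 h, then LPS 20 μg/ml for 18 h.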

T1 sequence (P47811 whole entry): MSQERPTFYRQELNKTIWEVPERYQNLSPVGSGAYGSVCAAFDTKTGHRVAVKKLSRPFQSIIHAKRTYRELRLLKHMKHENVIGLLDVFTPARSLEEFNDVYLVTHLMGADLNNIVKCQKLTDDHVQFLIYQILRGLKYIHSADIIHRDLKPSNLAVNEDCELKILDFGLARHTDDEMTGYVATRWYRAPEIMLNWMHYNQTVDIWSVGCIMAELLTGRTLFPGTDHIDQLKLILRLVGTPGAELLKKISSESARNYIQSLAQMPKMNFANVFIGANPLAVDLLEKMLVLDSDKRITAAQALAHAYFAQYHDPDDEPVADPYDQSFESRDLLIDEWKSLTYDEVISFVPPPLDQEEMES

Row | SMILES | IC50 [1] [nM] | IC50 [2] [nM]
1 | Cc1ccc(-n2nc(C(C)(C)C)cc2NC(=O)Nc2cccc(CC3CCN(C(=O)C4(C)CC4)CC3)c2)cc1 [Compound A16, 1-(5-tert-Butyl-2-p-tolyl-2H-pyrazol-3-yl)-3-{3-[1-(1-methyl-cyclopropanecarbonyl)-piperidin-4-ylmethyl]-phenyl}-urea] | 10 to 100 | 10 to 500
2 | Cc1ccc(-n2nc(C(C)(C)C)cc2NC(=O)Nc2cccc(CC3CCN(C(=O)c4sc(C)nc4C)CC3)c2)cc1 [Compound A28, 1-(5-tert-Butyl-2-p-tolyl-2H-pyrazol-3-yl)-3-{3-[1-(2,4-dimethyl-thiazole-5-carbonyl)-piperidin-4-ylmethyl]-phenyl}-urea] | 10 to 100 | 10 to 500
3 | Cc1ccc(-n2nc(C(C)(C)C)cc2NC(=O)Nc2cccc(CC3CCN(C(=O)c4csc(-c5cccnc5)n4)CC3)c2)cc1 [Compound A32, 1-(5-tert-Butyl-2-p-tolyl-2H-pyrazol-3-yl)-3-{3-[1-(2-pyridin-3-yl-thiazole-4-carbonyl)-piperidin-4-ylmethyl]-phenyl}-urea] | 10 to 100 | 10 to 500
4 | Cc1ccc(-n2nc(C(C)(C)C)cc2NC(=O)Nc2cccc(CC3CCN(C(=O)c4csc(-c5ccncc5)n4)CC3)c2)cc1 [Compound A34, 1-(5-tert-Butyl-2-p-tolyl-2H-pyrazol-3-yl)-3-{3-[1-(2-pyridin-4-yl-thiazole-4-carbonyl)-piperidin-4-ylmethyl]-phenyl}-urea] | 10 to 100 | 10 to 500
5 | Cc1ccc(-n2nc(C(C)(C)C)cc2NC(=O)Nc2cccc(CC3CCN(C(=O)c4cccnc4Cl)CC3)c2)cc1 [Compound A42, 1-(5-tert-Butyl-2-p-tolyl-2H-pyrazol-3-yl)-3-{3-[1-(2-chloro-pyridine-3-carbonyl)-piperidin-4-ylmethyl]-phenyl}-urea] | 10 to 100 | 10 to 500
6 | Cc1ccc(-n2nc(C(C)(C)C)cc2NC(=O)Nc2cccc(CC3CCN(C(=O)Cc4ccccc4F)CC3)c2)cc1 [Compound A43, 1-(5-tert-Butyl-2-p-tolyl-2H-pyrazol-3-yl)-3-(3-{1-[2-(2-fluoro-phenyl)-acetyl]-piperidin-4-ylmethyl}-phenyl)-urea] | 10 to 100 | 10 to 500
7 | Cc1ccc(-n2nc(C(C)(C)C)cc2NC(=O)Nc2cccc(CC3CCN(C(=O)c4cccnc4C)CC3)c2)cc1 [Compound A59, 1-(5-tert-Butyl-2-p-tolyl-2H-pyrazol-3-yl)-3-{3-[1-(2-methyl-pyridine-3-carbonyl)-piperidin-4-ylmethyl]-phenyl}-urea] | 10 to 100 | 10 to 500
8 | CC(=O)Nc1cccc(C(=O)N2CCC(Cc3cccc(NC(=O)Nc4cc(C(C)(C)C)nn4-c4ccc(C)cc4)c3)CC2)c1 [Compound A88, N-[3-(4-{3-[3-(5-tert-Butyl-2-p-tolyl-2H-pyrazol-3-yl)-ureido]-benzyl}-piperidine-1-carbonyl)-phenyl]-acetamide] | 10 to 100 | 10 to 500
9 | COc1ccc(C(=O)N2CCC(Cc3cccc(NC(=O)Nc4cc(C(C)(C)C)nn4-c4ccc(C)cc4)c3)CC2)c(C)c1 [Compound A120, 1-(5-tert-Butyl-2-p-tolyl-2H-pyrazol-3-yl)-3-{3-[1-(4-methoxy-2-methyl-benzoyl)-piperidin-4-ylmethyl]-phenyl}-urea] | 10 to 100 | 10 to 500
10 | COc1cscc1C(=O)N1CCC(Cc2cccc(NC(=O)Nc3cc(C(C)(C)C)nn3-c3ccc(C)cc3)c2)CC1 [Compound A123, 1-(5-tert-Butyl-2-p-tolyl-2H-pyrazol-3-yl)-3-{3-[1-(4-methoxy-thiophene-3-carbonyl)-piperidin-4-ylmethyl]-phenyl}-urea] | 10 to 100 | 10 to 500
11 | Cc1ccc(-n2nc(C(C)(C)C)cc2NC(=O)Nc2cccc(CC3CCN(C(=O)c4ccc(C)s4)CC3)c2)cc1 [Compound A137, 1-(5-tert-Butyl-2-p-tolyl-2H-pyrazol-3-yl)-3-{3-[1-(5-methyl-thiophene-2-carbonyl)-piperidin-4-ylmethyl]-phenyl}-urea] | 10 to 100 | 10 to 500
12 | Cc1ccc(-n2nc(C(C)(C)C)cc2NC(=O)Nc2cccc(CC3CCN(C(=O)CNC(=O)c4ccccc4)CC3)c2)cc1 [Compound A163, N-[2-(4-{3-[3-(5-tert-butyl-2-p-tolyl-2H-pyrazol-3-yl)-ureido]-benzyl}-piperidin-1-yl)-2-oxo-ethyl]-benzamide] | 10 to 100 | 10 to 500
13 | Cc1ccc(-n2nc(C(C)(C)C)cc2NC(=O)Nc2cccc(CC3CCN(C(=O)c4ccncc4)CC3)c2)cc1 [Compound A170, 1-(5-tert-Butyl-2-p-tolyl-2H-pyrazol-3-yl)-3-{3-[1-(pyridine-4-carbonyl)-piperidin-4-ylmethyl]-phenyl}-urea] | 10 to 100 | 10 to 500
14 | COCC(=O)N1CCC(Cc2cccc(NC(=O)Nc3cc(C(C)(C)C)nn3-c3ccc(C)cc3)c2)CC1 [Compound A173, 1-(5-tert-Butyl-2-p-tolyl-2H-pyrazol-3-yl)-3-{3-[1-(2-methoxy-acetyl)-piperidin-4-ylmethyl]-phenyl}-urea] | 10 to 100 | 10 to 500
15 | Cc1ccc(-n2nc(C(C)(C)C)cc2NC(=O)Nc2ccc(CC3CCN(C(=O)c4coc5c4C(=O)CCC5)CC3)cc2)cc1 [Compound A342, 1-(5-tert-Butyl-2-p-tolyl-2H-pyrazol-3-yl)-3-{4-[1-(4-oxo-4,5,6,7-tetrahydro-benzofuran-3-carbonyl)-piperidin-4-ylmethyl]-phenyl}-urea] | 10 to 100 | 
16 | CC(=O)Nc1cccc(C(=O)N2C3CCC2CC(Cc2cccc(NC(=O)Nc4cc(C(C)(C)C)nn4-c4ccc(C)cc4)c2)C3)c1 (centres unmarked) [Compound A707, N-[3-(3-{3-[3-(5-tert-Butyl-2-p-tolyl-2H-pyrazol-3-yl)-ureido]-benzyl}-8-aza-bicyclo[3.2.1]octane-8-carbonyl)-phenyl]-acetamide] | 10 to 100 | 
17 | Cc1ccc(-n2nc(C(C)(C)C)cc2NC(=O)Nc2cccc(CC3CC4CCC(C3)N4S(=O)(=O)c3ccc4c(c3)OCCN4C)c2)cc1 (centres unmarked) [Compound A880, 1-(5-tert-Butyl-2-p-tolyl-2H-pyrazol-3-yl)-3-{3-[8-(4-methyl-3,4-dihydro-2H-benzo[1,4]oxazine-7-sulfonyl)-8-aza-bicyclo[3.2.1]oct-3-ylmethyl]-phenyl}-urea] | 10 to 100 | 
18 | COc1ccc(OC(=O)N2CCC(Cc3ccc(NC(=O)Nc4cc(C(C)(C)C)nn4-c4ccc(C)cc4)cc3)CC2)cc1 [Compound A1605, 4-{4-[3-(5-tert-Butyl-2-p-tolyl-2H-pyrazol-3-yl)-ureido]-benzyl}-piperidine-1-carboxylic acid 4-methoxy-phenyl ester] | 10 to 100 | 
19 | CC(=O)N1CCC(Cc2ccc(NC(=O)Nc3cc(C(C)(C)C)nn3-c3ccc(C)cc3)cc2)CC1 [Compound A1637, 1-[4-(1-acetyl-piperidin-4-ylmethyl)-phenyl]-3-(5-tert-butyl-2-p-tolyl-2H-pyrazol-3-yl)-urea] | 10 to 100 | 
20 | Cc1ccc(-n2nc(C(C)(C)C)cc2NC(=O)Nc2cccc(CC3CCN(C(=O)c4cc5ccccc5o4)CC3)c2)cc1 [Compound A1638, 1-{3-[1-(benzofuran-2-carbonyl)-piperidin-4-ylmethyl]-phenyl}-3-(5-tert-butyl-2-p-tolyl-2H-pyrazol-3-yl)-urea] | 10 to 100 | 
21 | Cc1ccc(-n2nc(C(C)(C)C)cc2NC(=O)Nc2cccc(CC3CCN(C(=O)C4CCNCC4)CC3)c2)cc1 [Compound A1639, 1-(5-tert-Butyl-2-p-tolyl-2H-pyrazol-3-yl)-3-{3-[1-(piperidine-4-carbonyl)-piperidin-4-ylmethyl]-phenyl}-urea] | 10 to 100 | 
22 | Cc1ccc(-n2nc(C(C)(C)C)cc2NC(=O)Nc2ccc(CC3CC4CCC(C3)N4C(=O)c3cccc(C)n3)cc2)cc1 (centres unmarked) [Compound A1640, 1-(5-tert-Butyl-2-p-tolyl-2H-pyrazol-3-yl)-3-{4-[8-(6-methyl-pyridine-2-carbonyl)-8-aza-bicyclo[3.2.1]oct-3-ylmethyl]-phenyl}-urea] | 10 to 100 | 
23 | CC(=O)C(=CC(=O)c1ccccc1)NC(=O)N1CCC(Cc2ccc(NC(=O)Nc3cc(C(C)(C)C)nn3-c3ccc(C)cc3)cc2)CC1 [Compound A1641, 4-{4-[3-(5-tert-Butyl-2-p-tolyl-2H-pyrazol-3-yl)-ureido]-benzyl}-piperidine-1-carboxylic acid (1-acetyl-3-oxo-3-phenyl-propenyl)-amide] | 10 to 100 | 
24 | Cc1ccc(-n2nc(C(C)(C)C)cc2NC(=O)Nc2ccc(CC3CCN(C(=O)O[C@@H]4C[C@H](C)CC[C@H]4C(C)C)CC3)cc2)cc1 [Compound A1644, 4-{4-[3-(5-tert-Butyl-2-p-tolyl-2H-pyrazol-3-yl)-ureido]-benzyl}-piperidin-1-carboxylic acid (1R,2S,5R)-2-isopropyl-5-methyl-cyclohexyl ester] | 10 to 100 | 
